Experimental data as given in US20060251714A1, “Pharmaceutical formulations of amyloid inhibiting compounds” (priority 2005, published 2006).

Tests used:
[1] = Example 10: 12-week placebo-controlled study in mild to moderate Alzheimer's Disease patients, plasma pharmacokinetics; type: in vivo, human; details: AD patients; for AUC∞: mean, only patients with estimable elimination rate constant
From the text: (§1) In the following examples and elsewhere herein, terms are as defined below. The pharmacokinetic parameters were derived by non-compartmental analysis using WinNonlin® (Pharsight Corporation, Mountain View, Calif.) or SAS® for Windows® (SAS Institute Inc., Cary, N.C.).
AUCss—the area under the plasma concentrations versus time curve during a dosing interval at steady state.
(§2) A multicenter, randomized, double-blind, placebo-controlled and parallel designed study is made with 3-APS in the formulation described in Table 5 above in patients suffering from mild to moderate Alzheimer's Disease (AD). An objective of this study is to assess the safety and tolerability of 3-APS and to assess its pharmacokinetics in AD patients. A total of fifty-eight (58) mild to moderate AD patients (MMSE scores=13 to 26) are enrolled from 6 centers in the United States. Patients are randomized to receive in 1:1:1:1 ratio of NC-758-1 at 50, 100, 150 mg BID or placebo BID for 12 weeks. Study medication is administered orally (tablet). For doses at multiples of 50 mg, multiple 50 mg tables are administered. Each patient is evaluated on 6 occasions at screening, baseline [Week 0], weeks 2, 4, 8 and 12. Blood samples are collected from each patient prior to dosing and at specified time points through 12 h post-dose after the first dose (Week 0) and the last dose (Week 12). Blood samples are also collected prior to the first dose of the day during Week 2, 4 and 8 visits.

[2] = Example 7 Part I: single rising oral doses of NC-758, plasma pharmacokinetics in healthy young and elderly male volunteers; type: in vivo, human; details: for AUC∞: mean, only subjects with estimable elimination rate constant
From the text: as §1
Cmax —the maximum observed plasma concentration.
Tmax—the time of occurrence of Cmax.
AUC0-t—the area under the plasma concentration versus time curve from time zero to the last sampling time at which concentrations were at or above the limit of quantification, calculated by the linear trapezoidal rule.
AUC∞—the area under the plasma concentrations versus time curve from time zero to infinity, calculated from AUC0-t+(Clast/λz), where Clast is the last observed quantifiable concentration and λz is the apparent terminal rate constant.
t1/2—the apparent terminal half-life, calculated from Ln2/λz.
Part I—The pharmacokinetic profile and the effect of food on single rising oral doses of 3-APS free acid, (modified-release enteric-coated tablet, as described in Table 3 above, hereinafter “NC-758”) in healthy male young (18-45 years) volunteers is determined. For doses at multiples of 100 mg, multiple 100 mg tables are administered. The pharmacokinetics of a single oral dose of NC-758 is also determined in a group of healthy male elderly (≧55 years old) volunteers. The test is a randomized, double-blind, placebo-controlled study to assess the pharmacokinetic profile of 4 single rising oral doses of NC-758 in healthy young (18-45 years) male subjects. Blood samples are collected during 24 h following dosing. Plasma concentrations of 3-APS are determined using a validated LC-MS/MS method.

[3] = Example 12: 3-APS concentration in cerebrospinal fluid of CAA patients; type: in vivo; details: human, oral, 5 hours post-dose on Week 12, range of means, CSF samples from five patients, some below lower limit of quantitation, read-out: mean concentrations of 3-APS in the cerebrospinal fluid (CSF)
Experimental: A total of 24 patients who have had lobar cerebral hemorrhage are randomized to receive in a 1:1:1 ratio 3-APS 50, 100 or 150 mg BID for 12 weeks. A lumbar puncture is performed on an optional basis at Weeks 0 and 12 to assess the pharmacological effect of 3-APS on Aβ40, Aβ42 and tau concentrations in cerebrospinal fluid (CSF) and to measure the drug concentration in the CSF. Rating instruments (NIHSS, Barthel Index, ADAS-cog and EXIT25) are administered at Weeks 0 and 12 to evaluate the neurological and cognitive functions as well as the daily functioning.
For pharmacokinetic investigations, blood samples are collected from each patient prior to dosing and at specified time points through 12 h post-dose after the first dose (Week 0) and the last dose (Week 12). Blood samples are also collected prior to the first dose of the day during Week 2, 4 and 8 visits. CSF samples are obtained by lumbar puncture prior to dosing on Week 0 and approximately 5 hours post-dose on Week 12.
The mean concentrations of 3-APS in the cerebrospinal fluid (CSF) 5 hours post-dose on Week 12 range from 3.28 to 4.10 ng/mL confirming that the central nervous system is exposed to the drug.

[4] = Example 10: 3-APS concentration in cerebrospinal fluid of AD patients; type: in vivo; details: human
From the text: as §2
(Patients having a CSF level below the lower limit of quantitation of the assay are considered as zero.) CSF concentrations of 3-APS on Day 2 of Week 12 after twice daily oral administration for 12 weeks are as follows: […]

[5] = 50 mg BID (Table 5 tablet), Week 0 (single dose), n = 15, mean
[6] = 100 mg BID (Table 5 tablet), Week 0 (single dose), n = 16, mean
[7] = 150 mg BID (Table 5 tablet), Week 0 (single dose), n = 14, mean
[8] = 200 mg dose, see Tables 9 and 10
[9] = single oral 100 mg NC-758 (Table 3 tablet), young (18-45 years) male subjects, fasted, n = 5, mean
[10] = single oral 200 mg NC-758 (Table 3 tablet), elderly (>55 years) male subjects, fasted, n = 6, mean
[11] = single oral 200 mg NC-758 (Table 3 tablet), young (18-45 years) male subjects, fasted, n = 6, mean
[12] = single oral 300 mg NC-758 (Table 3 tablet), young (18-45 years) male subjects, fasted, n = 5, mean
[13] = single oral 400 mg NC-758 (Table 3 tablet), young (18-45 years) male subjects, fasted, n = 3, mean

In the case of `NCCCS(=O)(=O)O` [3-APS, 3-amino-1-propanesulfonic acid], the “AUC∞” value ([1]; 50 mg BID (Table 5 tablet), Week 0 (single dose)) is reported as 1396 ng·h/mL, the AUC(0-t) [1, 5] is reported as 1321 ng·h/mL and the Cmax [1, 5] is reported as 310 ng/mL. The Tmax ([1]; 50 mg BID (Table 5 tablet), Week 12 (repeated), n = 15, median) was 3 h, the “AUC∞” value ([1]; 100 mg BID (Table 5 tablet), Week 0 (single dose)) was 2569 ng·h/mL and the AUC(0-t) [1, 6] was 2467 ng·h/mL. It also gave a Cmax [1, 6] of 618 ng/mL, a Tmax ([1]; 100 mg BID (Table 5 tablet), Week 0 (single dose), n = 16, median) of 4.5 h and a Tmax ([1]; 100 mg BID (Table 5 tablet), Week 12 (repeated), n = 14, median) of 3.5 h. The “AUC∞” value ([1]; 150 mg BID (Table 5 tablet), Week 0 (single dose)) was 3418 ng·h/mL, the AUC(0-t) [1, 7] was 2792 ng·h/mL and the Cmax [1, 7] was 624 ng/mL. For the same molecule, the Tmax ([1]; 150 mg BID (Table 5 tablet), Week 12 (repeated), n = 11, median) was 3 h, the “AUC0-t greater in elderly subjects compared to young subjects” value [2, 8] was “approximately 70%” and the “Cmax greater in elderly subjects compared to young subjects” value [2, 8] was “approximately 70%”. The “AUC∞” value ([2]; single oral 100 mg NC-758 (Table 3 tablet), young (18-45 years) male subjects, fasted) was 1421 ng·h/mL, the AUC0-Tlast [2, 9] was 1392 ng·h/mL and the Cmax [2, 9] was 410 ng/mL. For the same molecule, the AUC0-Tlast [2, 10] was 4882 ng·h/mL, the Cmax [2, 10] was 1094 ng/mL and the “AUC∞” value ([2]; single oral 200 mg NC-758 (Table 3 tablet), young (18-45 years) male subjects, fasted) was 2492 ng·h/mL. For the same molecule, the AUC0-Tlast [2, 11] was 2898 ng·h/mL, the Cmax [2, 11] was 661 ng/mL and the “AUC∞” value ([2]; single oral 300 mg NC-758 (Table 3 tablet), young (18-45 years) male subjects, fasted) was 4464 ng·h/mL. For the same molecule, the AUC0-Tlast [2, 12] was 3999 ng·h/mL, the Cmax [2, 12] was 904 ng/mL and the AUC0-Tlast [2, 13] was 15966 ng·h/mL. The Cmax [2, 13] was 5367 ng/mL, the Tmax ([2]; single oral 400 mg NC-758 (Table 3 tablet), young (18-45 years) male subjects, fasted, n = 3, median) was 2 h and the concentration at 5 h [3] was 3.28 to 4.1 ng/mL. The concentration at 5 h ([4]; dose 50 mg twice daily oral for 12 weeks, Day 2 of Week 12, read-out: CSF concentration with mean ± standard deviation) was 1.07 ± 1.8 ng/mL, the concentration at 5 h ([4]; dose 100 mg twice daily oral for 12 weeks, Day 2 of Week 12, read-out: CSF concentration with mean ± standard deviation) was 4.36 ± 2.66 ng/mL and the concentration at 5 h ([4]; dose 150 mg twice daily oral for 12 weeks, Day 2 of Week 12, read-out: CSF concentration with mean ± standard deviation) was 3.87 ± 2.74 ng/mL. It also gave a concentration at 5 h ([4]; oral, 5 hours post-dose on Week 12, range of means across dose groups, levels below lower limit of quantitation considered as zero, read-out: mean concentrations of 3-APS in the cerebrospinal fluid (CSF)) of 2.61 to 7.33 ng/mL.
